Reference: the supplement of paper PMC10307832

Assays:
Experiment in all cases: relative viability (nuclei count vs DMSO), 5 days (fraction); higher = more cells survive
Adavosertib + Lapatinib = compound: C=CCn1c(=O)c2cnc(Nc3ccc(N4CCN(C)CC4)cc3)nc2n1-c1cccc(C(C)(C)O)n1 [Adavosertib] + CS(=O)(=O)CCNCc1ccc(-c2ccc3ncnc(Nc4ccc(OCc5cccc(F)c5)c(Cl)c4)c3c2)o1 [Lapatinib] (partner 2 µM)
Outline: (§1)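 Lung cancer cell lines in 1536-well plates got either a single drug or a fixed anchor-drug dose together with five library-drug doses (not always all listed) in √10 steps, by pin tool, on the day after seeding. Nuclei were counted after 5 days, and relative viability is the treated-to-vehicle ratio of nuclei counts. Values are medians of duplicate plates.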

Adavosertib + Pictilisib = compound: C=CCn1c(=O)c2cnc(Nc3ccc(N4CCN(C)CC4)cc3)nc2n1-c1cccc(C(C)(C)O)n1 [Adavosertib] + CS(=O)(=O)N1CCN(Cc2cc3nc(-c4cccc5[nH]ncc45)nc(N4CCOCC4)c3s2)CC1 [Pictilisib] (partner 1 µM)
Outline: as §1

Nelarabine + Lapatinib = compound: COc1nc(N)nc2c1ncn2[C@@H]1O[C@H](CO)[C@@H](O)[C@@H]1O [Nelarabine] + CS(=O)(=O)CCNCc1ccc(-c2ccc3ncnc(Nc4ccc(OCc5cccc(F)c5)c(Cl)c4)c3c2)o1 [Lapatinib] (partner 2 µM)
Outline: as §1

Nelarabine + Alpelisib = compound: COc1nc(N)nc2c1ncn2[C@@H]1O[C@H](CO)[C@@H](O)[C@@H]1O [Nelarabine] + Cc1nc(NC(=O)N2CCC[C@H]2C(N)=O)sc1-c1ccnc(C(C)(C)C(F)(F)F)c1 [Alpelisib] (partner 2 µM)
Outline: as §1

Row | Cell Line | relative viability (Adavosertib + Lapatinib; first compound 0.01 µM) | relative viability (Adavosertib + Lapatinib; first compound 0.03162 µM) | relative viability (Adavosertib + Lapatinib; first compound 0.1 µM) | relative viability (Adavosertib + Lapatinib; first compound 0.3162 µM) | relative viability (Adavosertib + Pictilisib; first compound 0.01 µM) | relative viability (Adavosertib + Pictilisib; first compound 0.03162 µM) | relative viability (Adavosertib + Pictilisib; first compound 0.1 µM) | relative viability (Adavosertib + Pictilisib; first compound 0.3162 µM) | relative viability (Nelarabine + Lapatinib; first compound 0.01 µM) | relative viability (Nelarabine + Lapatinib; first compound 0.03162 µM) | relative viability (Nelarabine + Lapatinib; first compound 0.1 µM) | relative viability (Nelarabine + Lapatinib; first compound 0.3162 µM) | relative viability (Nelarabine + Lapatinib; first compound 1 µM) | relative viability (Nelarabine + Alpelisib; first compound 0.01 µM) | relative viability (Nelarabine + Alpelisib; first compound 0.03162 µM) | relative viability (Nelarabine + Alpelisib; first compound 0.1 µM) | relative viability (Nelarabine + Alpelisib; first compound 0.3162 µM) | relative viability (Nelarabine + Alpelisib; first compound 1 µM)
1 | NCI-H2023 | 0.787 | 0.735 | 0.599 | 0.344 | 0.251 | 0.21 | 0.197 | 0.143 | 1.48 | 1.15 | 0.642 | 0.812 | 0.948 | 0.634 | 0.769 | 0.559 | 0.594 | 0.55
2 | SW 1573 | 1.22 | 1.36 | 1.14 | 1.08 | 0.482 | 0.525 | 0.58 | 0.343 | 1.14 | 1.13 | 1.11 | 1.18 | 1.2 | 0.57 | 0.848 | 0.803 | 0.806 | 0.818
3 | NCI-H727 | 0.872 | 0.859 | 0.852 | 1.02 | 0.525 | 0.341 | 0.359 | 0.366 | 0.909 | 0.896 | 0.922 | 0.74 | 0.829 | 0.683 | 0.572 | 0.632 | 0.625 | 0.571
4 | LCLC-97TM1 | – | 0.703 | 0.804 | 0.686 | – | 0.146 | 0.223 | 0.167 | 0.854 | 0.778 | 0.667 | 0.818 | 1.14 | 0.277 | 0.211 | 0.216 | 0.212 | 0.26
5 | NCI-H2405 | 1.09 | 1.13 | 1.04 | 1.11 | 0.466 | 0.412 | 0.437 | 0.373 | 1.14 | 1.13 | 0.904 | 1.06 | 1.04 | 0.842 | 0.794 | 0.74 | 0.647 | 0.801
6 | NCI-H460 | 1.11 | 0.978 | 1.04 | 0.83 | 0.315 | 0.355 | 0.289 | 0.417 | – | 1.76 | 1.84 | 1.62 | 1.27 | 1.03 | 0.411 | 0.565 | 0.66 | 0.371
7 | NCI-H650 | 0.856 | 1.28 | 1.1 | 0.808 | 0.926 | 1.04 | 1.05 | 0.805 | 0.97 | 0.842 | 0.929 | 1.07 | 0.887 | 1.38 | 1.08 | 1 | 1.14 | 1.24
8 | NCI-H661 | 0.542 | 0.601 | 0.514 | 0.363 | 0.33 | 0.415 | 0.352 | 0.322 | 0.497 | 0.644 | 0.556 | 0.502 | 0.509 | 0.497 | 0.834 | 0.701 | 0.772 | 0.455
9 | LK-2 | 0.866 | 1.05 | 1.01 | 0.97 | 0.549 | 0.622 | 0.676 | 0.59 | 1.23 | – | 1.03 | 1.02 | 1.05 | 1.58 | – | 1.13 | 1.12 | 1.04
10 | NCI-H1703 | 1.19 | 1.1 | 0.93 | 0.257 | 0.297 | 0.227 | 0.179 | 0.127 | 1.65 | 1.33 | 1.42 | 1.05 | 1.11 | 0.395 | 0.278 | 0.385 | 0.366 | 0.409
11 | LU99A | 1.02 | 0.96 | 0.956 | 0.639 | 0.341 | 0.303 | 0.354 | 0.241 | 1.15 | 1.04 | 1.19 | 1.12 | 1.1 | 0.517 | 0.415 | 0.519 | 0.476 | 0.54
12 | EPLC-272H | 0.745 | 0.958 | 0.844 | 0.739 | 0.277 | 0.414 | 0.303 | 0.295 | 1.12 | 0.798 | 0.976 | 1.02 | 0.86 | 0.986 | 0.932 | 1.03 | 0.926 | 0.808
13 | NCI-H2087 | 0.951 | 1.21 | 1.15 | 1.3 | 0.86 | 0.947 | 0.833 | 0.923 | 1 | 1.02 | 1.09 | 1.07 | 1.32 | 1.19 | 1.13 | 0.986 | 0.969 | 1.07
14 | HCC-827 | 0.198 | 0.2 | 0.215 | 0.191 | 0.985 | 1.05 | 1.08 | 0.937 | 0.196 | 0.205 | 0.169 | 0.179 | 0.194 | 0.999 | 0.848 | 0.839 | 0.784 | 0.595
15 | ABC-1 | 1.12 | 1.09 | 1.24 | 1.26 | 0.586 | 0.695 | 0.528 | 0.627 | 1.44 | 0.952 | 1.23 | 1.1 | 1.37 | 1.06 | 1.3 | 1.24 | 0.937 | 1.08
16 | NCI-H520 | 0.923 | 0.822 | 0.802 | 0.858 | 0.288 | 0.286 | 0.381 | 0.269 | 0.991 | 0.947 | 1.31 | 0.889 | 0.887 | 1.16 | 0.924 | 1.16 | 1.03 | 1.1
17 | NCI-H1734 | 1.07 | 1.07 | 1.07 | 0.825 | 0.41 | 0.434 | 0.478 | 0.31 | 1.23 | 1.22 | 1.09 | 1.08 | 1.06 | 0.746 | 0.67 | 0.709 | 0.653 | 0.704
18 | NCI-H2009 | 0.975 | 0.99 | 1.05 | 0.926 | 0.766 | 0.847 | 0.68 | 0.395 | 1.04 | 1.03 | 0.869 | 1.07 | 1.03 | 1.25 | 1.32 | 1.15 | 1.2 | 1.14
